Source: patent US7390826B2, “Inhibitors of animal cell motility and growth” (The Board of Trustees of The University of Illinois, priority 2002, dated 2008)
Like-named read-outs stand apart in the source and are kept apart here.

What was measured:
Xenopus laevis embryos = assay: frog embryo morphogenesis assay (scoring of developmental defects); assay type: in vivo; settings: Xenopus laevis, read-out: EC50 with respect to the defective phenotype at 72 hr following treatment
Description: In order to identify compounds that specifically perturb morphogenesis in the frog embryo, a suitable method for scoring embryos by characteristic defects was developed. A useful starting point was the “dorso-anterior index” (DAI). The DAI originally was constructed by adding new morphological characteristics to the older “index of axis deficiency” (S. R. Scharf et al., Dev. Biol., 99, 75-87 (1983)). The DAI is a scale of dorsoanterior development wherein embryos are assigned a score based on degree of dorsoanterior phenotype (K. R. Kao et al., Dev. Biol., 127, 64-77 (1988)). The scale encompasses a score of 0 (for the most axis-deficient or ventralized embryos) to 10 (for embryos with the most enhanced dorsoanterior structures), with a score of 5 signifying a normal embryo.
Because the DAI focuses only on dorsoanterior phenotypes, other categories were added to describe possible defects more comprehensively, with an emphasis on characteristics that are easily and unambiguously recognized in intact embryos, and that are diagnostic of possible effects on morphogenesis during gastrulation and neurulation. The most useful and readily scored categories that covered the most frequent deficiencies were: reduced anterior structures and microcephaly, delayed appearance or absence of eye pigmentation, overall shortness along the anteroposterior axis, bent axis, bent tail only, reduced posterior structures/tail, malformed or reduced fins, delayed or failed neural tube closure (neural fold fusion), abnormal pigmentation pattern, ventral swelling (edema), and delayed or abnormal visceral organogenesis and yolk resorption. In addition, blastopore closure, an earlier process that marks the completion of gastrulation, was observed.
In these tests, test compounds were added individually to wells each containing 4-8 embryos in 12-well plates. Embryos at stage 8.5-9, according to the classification of Nieuwkoop and Faber (P. I. Nieuwkoop et al., Normal Table of Xenopus laevis (Daudin). Amsterdam: North-Holland Publ.) (1967)), were used because these are late blastula stages before gastrulation begins at stage 10, which allowed focusing primarily on compounds that affect morphogenetic events in gastrulation and neurulation. These embryos, therefore, have undergone a midblastula transition at stage 8 (cleavage division 12) when zygotic transcription begins (J. Newport et al., Cell, 30, 675-686 (1982); J. Newport et al., Cell, 30, 687-696 (1982)) but have not yet started the morphogenetic movements of gastrulation.
Standard procedures were used in the care of animals, gamete preparation, fertilization of oocytes, and culture of embryos (B. K. Kay et al., Methods in Cell Biology, Volumn 36 (San Diego: Academic Press, Inc.) (1991)). In order to stimulate ovulation, female frogs were injected with 500 units of human chorionic gonadotropin (HCG). Eggs were squeezed from female frogs 12 hours later. Testes were removed from euthanized male frogs that had been primed with 50 units of HCG 4-6 hours earlier. The testes were stored at 4° C. in single strength Marc's Modified Ringer's solution with 50 μg/ml gentamycin and used for no more than 10 days. Small pieces of testes were macerated and spread over eggs for in vitro fertilization in Petri dishes. Fertilized eggs were placed in one-tenth strength Modified Barth's Saline (MBS) with 50 μg/ml gentamycin at constant temperature (19° C.) in a temperature-controlled incubator and development allowed to proceed under these conditions. Embryos were dejellied by briefly swirling them in a solution of 2% (w/v) L-cysteine, pH 8.0. The embryos then were rinsed extensively with one-tenth strength MBS to wash out the cysteine. Experiments were started within an hour of dejellying the embryos.
Experiments were carried out in 12-well flat-bottom polystyrene plates with 4-8 embryos per well in 1.0 ml of one-tenth strength MBS with 50 μg/ml gentamycin at 19° C. […]

[1] = test system: Madin-Darby canine kidney (MDCK) cell monolayers; assay: scrape-wound closure assay in MDCK cell monolayers; assay type: cell-based; settings: even at the highest concentration tested (500 μM)
Description: A method of determining the ability of a compound to inhibit or accelerate cell motility is a scrape-wound closure assay using cultured mammalian epithelial cell monolayers. Mechanical scraping of the epithelial monolayer induces cell sheet migration into the resulting gap, a phenomenon characteristic of wounded epithelia and mechanistically related to normal epithelial movements during embryonic morphogenesis (A. Jacinto et al., Nat. Cell Biol, 3, E117 (2001)). Epithelial cell sheet migration in this method proceeds by a Rac- and phosphoinositide-dependent cell crawling mechanism resembling the motility of other animal cells that move as individuals rather than as cell sheets (G. Fenteany et al., Curr. Biol., 10, 831 (2000)).
Wound closure in MDCK cell monolayers primarily involves cell spreading and motility rather than proliferation based on observations and treatments that block cell growth without inhibiting closure. However, after closure is complete and the gap is covered, cell division is observed in the former wound area, presumably as part of a homeostatic mechanism to regain the original cell density (M. F. Olson et al., Science, 269, 1270 (1995)). Wound closure involves Rac- and phosphoinositide-dependent actin polymerization and protrusion-driven cell crawling behavior, where force generation for movement is distributed from the wound margin to several rows of cells behind the margin. Accordingly, this method is excellent for determining whether a compound affects cell motility.
Cell culture conditions: Madin-Darby canine kidney (MDCK) cells (American Type Culture Collection cell line CCL-34) were cultured in Minimum Essential Medium (with Earle's balanced salts, non-essential amino acids, L-glutamine and sodium pyruvate) supplemented with 10% newborn calf serum at 37° C. and 5% carbon dioxide (CO2). Main cultures were grown in either […] tissue culture flasks with medium changes every two days. When cultures were about 75% confluent, cells were passaged by rinsing twice with single strength phosphate buffered saline (PBS) and treating with a solution of 0.05% (w/v) trypsin/0.02% (w/v) ethylenediaminetetraacetic acid (EDTA) in PBS to detach cells from the flasks. After cells were detached, an equal volume of serum-containing medium was added to inhibit the trypsin and cell density was determined using a hemacytometer. Cells were replated following dilution in fresh medium on new tissue culture flasks for continued culture and multiwell tissue culture plates for experiments. No culture used exceeded 15 passages. Experimental cultures were grown in 12-, 24-, 48-, or 96-well tissue culture plates with medium changes every two days.
Wound closure assay and compound screening: MDCK cells were plated on multiwell tissue culture plates and cultured at 37° C. and 5% CO2 with medium changes every two days until confluent. When the cultures reached confluence, medium was changed again and all experimental treatments were begun a day later. Compounds were solubilized in dimethyl sulfoxide (DMSO) and added with fresh-medium to cell cultures at initial screening concentrations of 10 and 100 μM. Controls consisted of parallel wells to-which DMSO solvent carrier alone was added at the same concentration as that added with experimental treatments (not exceeding 0.1% (v/v)). DMSO alone at this concentration had no detectable effect on the cells. Monolayers were scraped 30 min later with a micropipette and ultramicro tips, allowing small wounds of consistent size to be generated. Progress of wound closure was examined at set time intervals following wounding by microscope, and inhibitory or acceleratory effects on wound closure relative to parallel controls noted. […] Digital images of the wounded monolayers were taken every 2 hours for 18 hours, and then at 30, 36, 54, 60, and 72 hours following wounding. The number of lamellipodia at the wound margin was also counted at these times. […]

MDCK cell wounds = assay: lamellipodial density at the margin of MDCK cell wounds; assay type: cell-based, canine; set-up: key to Lamellipodial Density: lamellipodial protrusions per unit margin perimeter length; settings: 50 μM, mean ± SEM, * p<0.05 vs control
Description: Lamellipodial protrusion is known to drive most forms of animal cell crawling. At any given time in the migrating cell sheet, some cells are extending lamellipodia at the margin while others are not. […] Therefore, inhibition of cell sheet migration by compound 1 at least in part is attributed to reduced formation of lamellipodia at the would margin.
Lamellipodial density at the margin of MDCK cell wounds was determined under the following treatment conditions: 0.1% DMSO (control, n=25 wounded monolayers), 50 μM compound 1 (n=19), or 50 μM compound 11 (n=10). Lamellipodial density is the number of lamellipodial protrusions detected at the wound margin until closure for the times indicated divided by margin perimeter length. Values are mean±SEM.
Wound closure assay and compound screening: MDCK cells were plated on multiwell tissue culture plates and cultured at 37° C. and 5% CO2 with medium changes every two days until confluent. When the cultures reached confluence, medium was changed again and all experimental treatments were begun a day later. Compounds were solubilized in dimethyl sulfoxide (DMSO) and added with fresh-medium to cell cultures at initial screening concentrations of 10 and 100 μM. Controls consisted of parallel wells to-which DMSO solvent carrier alone was added at the same concentration as that added with experimental treatments (not exceeding 0.1% (v/v)). DMSO alone at this concentration had no detectable effect on the cells. Monolayers were scraped 30 min later with a micropipette and ultramicro tips, allowing small wounds of consistent size to be generated. Progress of wound closure was examined at set time intervals following wounding by microscope, and inhibitory or acceleratory effects on wound closure relative to parallel controls noted. […] Digital images of the wounded monolayers were taken every 2 hours for 18 hours, and then at 30, 36, 54, 60, and 72 hours following wounding. The number of lamellipodia at the wound margin was also counted at these times.

MDCK cells = assay: MDCK cell proliferation; assay type: cell-based, canine
Description: In FIG. 2A, cells were plated at low cell density (1×10^4 cells/mL) and allowed to attach and begin to grow for 48 hours prior to the start of experiment. The treatments were 0.1% DMSO (control, n=9 cultures), 50 μM compound 1 (n=8), or 50 μM compound 11 (n=7). Reported values are mean with SEM of the percent increase in cell number from 0 to 48 hours after addition of compound 1.
The values were mean with SEM of the percent increase in cell number another 48 hours after replacement of medium containing 50 μM compound 1 (n=8 cultures) or 0.1% DMSO (n=9) with fresh medium containing 0.1% DMSO.
MDCK cell proliferation: MDCK cells were plated on multiwell tissue culture plates at low density ([…]). Cells were allowed to attach and begin to grow for 48 hours before the start of the experiment. Fresh medium with or without compound was then added, and cells were incubated for 48 hours. At both 0 and 48 hours, some of the parallel wells for control and compound treatments were washed twice with PBS and treated with trypsin/EDTA solution to detach the cells. An equal volume of medium was added, cells were collected and counted using a hemacytometer. For reversibility, some of the parallel cultures for both control and compound treatments were grown another 48 hours after washing twice with PBS and replacing medium with fresh compound-free medium. At both the time of washing out and 48 hours later, some of the parallel wells for control and compound treatments were washed twice with PBS, detached from the plates with trypsin/EDTA solution, and the number of cells was counted.

[2] = solubility in carrier solvent; assay type: physicochemical
Description: Experiments were carried out in 12-well flat-bottom polystyrene plates with 4-8 embryos per well in 1.0 ml of one-tenth strength MBS with 50 μg/ml gentamycin at 19° C. Staging of embryos was done according to the classification of Nieuwkoop and Faber. Embryos at stage 8.5-9 (late blastula stages prior to the debut of gastrulation at stage 10) or at the 2-cell stage (after the first cleavage division, Nieuwkoop and Faber stage 2), as indicated in the figures, were treated with a test compound or dimethylsulfoxide (DMSO) carrier solvent and maintained at 19° C. […] DMSO alone at this concentration had no detectable effect on the embryos. […] As with 0.1% DMSO, this concentration of DMF had no effect on development of the frog embryos. Each experiment was conducted in triplicate on at least three separate occasions for a total of 9 or more wells per treatment. Embryos were observed using a stereomicroscope and scored for defects or delayed development at set times (0, 3, 6, 9, 12, 24, 48, 72, and 96 hours) following treatment.

[3] = 72 hr after treatment, dose-response, 5 concentrations

SMILES | EC50 (Xenopus laevis embryos; 72 h) [µM] | EC50 (Xenopus laevis embryos; [3]) [µM] | further results
C/C=C/C(=O)N1CCOC1=O [Compound 6] | 39.1 |  | 
CCCC(=O)N1C(=O)OC[C@@H]1Cc1ccccc1 [Compound 11] |  |  | bioactivity in wound closure assay [1]: no statistically significant bioactivity; Lamellipodial Density (MDCK cell wounds; 2 hours): 0.563 ± 0.148; Lamellipodial Density (MDCK cell wounds; 4 hours): 1.139 ± 0.270; Lamellipodial Density (MDCK cell wounds; 6 hours): 1.289 ± 0.276; Lamellipodial Density (MDCK cell wounds; 8 hours): 1.196 ± 0.312; Lamellipodial Density (MDCK cell wounds; 10 hours): 1.609 ± 0.357; Lamellipodial Density (MDCK cell wounds; 12 hours): 1.368 ± 0.309; inhibition of MDCK cell proliferation (percent increase in cell number) (MDCK cells; 50 μM, 0 to 48 hours): not; bioactivity in cell proliferation assay (MDCK cells; even at the highest concentration tested (500 μM)): no statistically significant bioactivity
CC/C=C/C(=O)N1C(=O)OC[C@@H]1Cc1ccccc1 [Compound 13] |  | 54.6 | 
C/C=C/C(=O)N1C(=O)OC[C@@H]1C(C)C [Compound 15] | 25.9 |  | 
C/C=C\C(=O)N1C(=O)OC[C@@H]1Cc1ccccc1 [Compound 17] | 19.1 |  | 
O=C(/C=C/c1c(F)c(F)c(F)c(F)c1F)N1C(=O)OC[C@@H]1Cc1ccccc1 [Compound 22] |  |  | solubility in DMF versus DMSO [2]: more soluble in DMF
CCCCC/C=C/C(=O)N1C(=O)OC[C@@H]1Cc1ccccc1 [Compound 23] |  | 58.1 | 
C/C=C/C(=O)N1C(=O)O[C@@H](c2ccccc2)[C@@H]1C [Compound 25] | 13.9 |  | 
C/C=C/C(=O)N1C(=O)O[C@H](c2ccccc2)[C@H]1C [Compound 26] | 12.7 |  | 
C/C=C/C(=O)N1C(=O)OC[C@@H]1c1ccccc1 [Compound 30] | 10.1 |  | 
CC#CC(=O)N1C(=O)OC[C@@H]1Cc1ccccc1 [Compound 31] |  | 5.9 | 
O=C(/C=C/c1cccc(F)c1)N1C(=O)OC[C@@H]1Cc1ccccc1 [Compound 33] |  | 47.6 | 
O=C(/C=C/c1ccc(O)cc1)N1C(=O)OC[C@@H]1Cc1ccccc1 [Compound 41] |  | 27.1 | solubility in DMF versus DMSO [2]: more soluble in DMF
C/C=C/C(=O)N1C(=O)OC[C@H]1Cc1ccccc1 [Compound 45] | 8.9 |  | 
C=CC(=O)N1C(=O)OC[C@@H]1Cc1ccccc1 [Compound 52] | 6.1 |  | 
O=C(/C=C/c1cccc(C(F)(F)F)c1)N1C(=O)OC[C@@H]1Cc1ccccc1 [Compound 54] |  | 30.4 | 
